pIC50, pKi: −log10 of the molar value.
biological target: Sodium-dependent dopamine transporter (Homo sapiens, UniProt Q01959); assay: DRUGMATRIX: Dopamine Transporter radioligand binding (ligand: [125I] RTI-55); type: cell membranes, CHO-K1, Membrane; conditions: Not Active = under 50% inhibition at 10 µM; read-out: IC50
Sequence (Q01959 whole entry): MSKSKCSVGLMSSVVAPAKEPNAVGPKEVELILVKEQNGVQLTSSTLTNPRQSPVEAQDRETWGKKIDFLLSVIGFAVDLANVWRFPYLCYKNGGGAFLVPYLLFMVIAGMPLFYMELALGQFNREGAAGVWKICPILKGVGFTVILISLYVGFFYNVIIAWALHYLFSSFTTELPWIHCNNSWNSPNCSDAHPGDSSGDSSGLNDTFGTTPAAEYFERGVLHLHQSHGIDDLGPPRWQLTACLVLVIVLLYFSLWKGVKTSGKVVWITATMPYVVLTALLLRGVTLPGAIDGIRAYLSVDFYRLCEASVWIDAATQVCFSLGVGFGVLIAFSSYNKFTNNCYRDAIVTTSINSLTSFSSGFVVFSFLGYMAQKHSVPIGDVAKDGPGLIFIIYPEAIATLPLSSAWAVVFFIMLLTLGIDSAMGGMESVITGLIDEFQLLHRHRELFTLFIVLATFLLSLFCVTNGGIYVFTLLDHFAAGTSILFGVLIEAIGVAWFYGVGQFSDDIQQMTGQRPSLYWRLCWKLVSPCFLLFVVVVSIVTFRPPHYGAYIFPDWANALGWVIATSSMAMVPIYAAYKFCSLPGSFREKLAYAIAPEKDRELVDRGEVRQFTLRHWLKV

Row | SMILES | pIC50
1 | CN(CCOc1ccc(C[C@H](Nc2ccccc2C(=O)c2ccccc2)C(=O)O)cc1)c1ccccn1 | 4.87
2 | COc1ccccc1OCCNCC(O)COc1cccc2[nH]c3ccccc3c12 (stereo unspecified) [CARVEDILOL] | 6.07

same assay, conditions: Not Active = under 50% inhibition at 10 µM; read-out: Ki

Row | SMILES | pKi
3 | CN(CCOc1ccc(C[C@H](Nc2ccccc2C(=O)c2ccccc2)C(=O)O)cc1)c1ccccn1 | 4.97
4 | COc1ccccc1OCCNCC(O)COc1cccc2[nH]c3ccccc3c12 (stereo unspecified) [CARVEDILOL] | 6.17

same assay, conditions: cho-k1; Not Active = under 50% inhibition at 10 µM

Row | SMILES | IC50
5 | COc1cc(/C=C/C(=O)O)ccc1O [FERULATE] | Not Active
6 | NC(=O)NC(=O)Cc1ccccc1 [PHENACEMIDE] | Not Active
7 | NC(=O)CN1CCCC1=O | Not Active
8 | CC(C)Cn1cnc2c(N)nc3ccccc3c21 [IMIQUIMOD] | Not Active

system: not listed separately; assay: DRUGMATRIX: GABAA, Muscimol, Central radioligand binding (ligand: [3H] Muscimol); type: cell membranes, Rattus norvegicus, Wistar, Brain, Membrane; conditions: Not Active = under 50% inhibition at 10 µM

Row | SMILES | IC50 | Ki
9 | COc1cc(/C=C/C(=O)O)ccc1O [FERULATE] | Not Active | Not Active
10 | NC(=O)NC(=O)Cc1ccccc1 [PHENACEMIDE] | Not Active | Not Active
11 | NC(=O)CN1CCCC1=O | Not Active | Not Active
12 | CC(C)Cn1cnc2c(N)nc3ccccc3c21 [IMIQUIMOD] | Not Active | Not Active
13 | CN(CCOc1ccc(C[C@H](Nc2ccccc2C(=O)c2ccccc2)C(=O)O)cc1)c1ccccn1 | Not Active | Not Active
14 | COc1ccccc1OCCNCC(O)COc1cccc2[nH]c3ccccc3c12 (stereo unspecified) [CARVEDILOL] | Not Active | Not Active

biological target: Glycine receptor (Rattus norvegicus, UniProt P22771+P24524+P07727+P20781); assay: not given; type: cell membranes, Wistar, Spinal cord, Membrane; conditions: not given; further: in other assays of this panel Not Active means under 50% inhibition at 10 µM

Row | SMILES | IC50
15 | COc1cc(/C=C/C(=O)O)ccc1O [FERULATE] | Not Active
16 | NC(=O)NC(=O)Cc1ccccc1 [PHENACEMIDE] | Not Active
17 | NC(=O)CN1CCCC1=O | Not Active
18 | CC(C)Cn1cnc2c(N)nc3ccccc3c21 [IMIQUIMOD] | Not Active
19 | CN(CCOc1ccc(C[C@H](Nc2ccccc2C(=O)c2ccccc2)C(=O)O)cc1)c1ccccn1 | Not Active
20 | COc1ccccc1OCCNCC(O)COc1cccc2[nH]c3ccccc3c12 (stereo unspecified) [CARVEDILOL] | Not Active

biological target: Kappa-type opioid receptor (Homo sapiens, UniProt P41145); assay: DRUGMATRIX: Opiate kappa (OP2, KOP) radioligand binding (ligand: [3H] Diprenorphine); type: cell membranes, HEK293, Membrane; conditions: hek293; Not Active = under 50% inhibition at 10 µM
Sequence (P41145 whole entry): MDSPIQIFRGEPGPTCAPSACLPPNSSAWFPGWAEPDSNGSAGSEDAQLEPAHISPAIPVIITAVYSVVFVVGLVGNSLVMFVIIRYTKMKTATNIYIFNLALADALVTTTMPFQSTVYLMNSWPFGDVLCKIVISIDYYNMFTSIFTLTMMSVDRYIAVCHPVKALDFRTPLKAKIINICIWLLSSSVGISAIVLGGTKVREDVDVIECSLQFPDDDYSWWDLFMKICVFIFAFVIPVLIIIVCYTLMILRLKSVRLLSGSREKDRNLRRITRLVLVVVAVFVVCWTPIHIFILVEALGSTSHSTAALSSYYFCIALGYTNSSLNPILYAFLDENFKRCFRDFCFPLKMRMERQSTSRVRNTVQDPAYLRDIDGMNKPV

Row | SMILES | IC50
21 | COc1cc(/C=C/C(=O)O)ccc1O [FERULATE] | Not Active
22 | NC(=O)NC(=O)Cc1ccccc1 [PHENACEMIDE] | Not Active
23 | NC(=O)CN1CCCC1=O | Not Active
24 | CC(C)Cn1cnc2c(N)nc3ccccc3c21 [IMIQUIMOD] | Not Active
25 | CN(CCOc1ccc(C[C@H](Nc2ccccc2C(=O)c2ccccc2)C(=O)O)cc1)c1ccccn1 | Not Active
26 | COc1ccccc1OCCNCC(O)COc1cccc2[nH]c3ccccc3c12 (stereo unspecified) [CARVEDILOL] | Not Active

biological target: T1, Neutrophil elastase (Homo sapiens, UniProt P08246); assay: not given; type: tissue-based; conditions: not given;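 further: inhibition of neutrophil elastase enzyme activity, measured with a p-nitroanilide-linked peptide substrate; in other assays of this panel Not Active means under 50% inhibition at 10 µM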
T1 sequence (P08246 whole entry): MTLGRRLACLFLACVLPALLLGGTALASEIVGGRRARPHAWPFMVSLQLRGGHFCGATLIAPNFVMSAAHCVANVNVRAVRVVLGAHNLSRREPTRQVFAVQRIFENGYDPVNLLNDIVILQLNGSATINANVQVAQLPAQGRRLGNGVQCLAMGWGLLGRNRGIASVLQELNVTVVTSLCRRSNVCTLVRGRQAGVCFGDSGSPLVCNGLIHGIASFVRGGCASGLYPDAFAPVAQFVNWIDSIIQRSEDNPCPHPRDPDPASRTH

Row | SMILES | IC50
27 | COc1cc(/C=C/C(=O)O)ccc1O [FERULATE] | Not Active
28 | NC(=O)NC(=O)Cc1ccccc1 [PHENACEMIDE] | Not Active
29 | NC(=O)CN1CCCC1=O | Not Active
30 | CC(C)Cn1cnc2c(N)nc3ccccc3c21 [IMIQUIMOD] | Not Active
31 | CN(CCOc1ccc(C[C@H](Nc2ccccc2C(=O)c2ccccc2)C(=O)O)cc1)c1ccccn1 | Not Active
32 | COc1ccccc1OCCNCC(O)COc1cccc2[nH]c3ccccc3c12 (stereo unspecified) [CARVEDILOL] | Not Active

biological target: Tyrosine-protein kinase Fyn (Homo sapiens, UniProt P06241); assay: biochemical; type: cell-based, Insect cells; conditions: insect cells;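 further: enzymatic inhibition of Fyn kinase activity measured with Poly(Glu:Tyr) as the phosphorylation substrate; in other assays of this panel Not Active means under 50% inhibition at 10 µM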
Sequence (P06241 whole entry): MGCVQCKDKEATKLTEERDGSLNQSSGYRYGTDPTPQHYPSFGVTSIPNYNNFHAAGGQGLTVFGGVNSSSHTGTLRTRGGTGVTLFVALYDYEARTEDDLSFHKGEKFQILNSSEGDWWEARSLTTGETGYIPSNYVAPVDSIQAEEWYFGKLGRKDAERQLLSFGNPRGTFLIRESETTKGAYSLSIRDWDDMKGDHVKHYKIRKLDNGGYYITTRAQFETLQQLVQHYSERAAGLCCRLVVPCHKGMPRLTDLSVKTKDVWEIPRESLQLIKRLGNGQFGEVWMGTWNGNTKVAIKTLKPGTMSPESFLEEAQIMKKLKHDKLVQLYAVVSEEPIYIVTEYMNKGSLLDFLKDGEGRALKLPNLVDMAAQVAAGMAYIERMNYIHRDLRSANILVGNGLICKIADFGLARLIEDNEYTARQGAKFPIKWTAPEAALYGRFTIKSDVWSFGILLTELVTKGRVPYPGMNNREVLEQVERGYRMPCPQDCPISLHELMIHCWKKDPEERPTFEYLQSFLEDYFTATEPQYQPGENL

Row | SMILES | IC50
33 | COc1cc(/C=C/C(=O)O)ccc1O [FERULATE] | Not Active
34 | NC(=O)NC(=O)Cc1ccccc1 [PHENACEMIDE] | Not Active
35 | NC(=O)CN1CCCC1=O | Not Active
36 | CC(C)Cn1cnc2c(N)nc3ccccc3c21 [IMIQUIMOD] | Not Active
37 | CN(CCOc1ccc(C[C@H](Nc2ccccc2C(=O)c2ccccc2)C(=O)O)cc1)c1ccccn1 | Not Active
38 | COc1ccccc1OCCNCC(O)COc1cccc2[nH]c3ccccc3c12 (stereo unspecified) [CARVEDILOL] | Not Active

biological target: Estrogen receptor beta (Homo sapiens, UniProt Q92731); assay: not given; conditions: sf9; further: in other assays of this panel Not Active means under 50% inhibition at 10 µM
Sequence (Q92731 whole entry): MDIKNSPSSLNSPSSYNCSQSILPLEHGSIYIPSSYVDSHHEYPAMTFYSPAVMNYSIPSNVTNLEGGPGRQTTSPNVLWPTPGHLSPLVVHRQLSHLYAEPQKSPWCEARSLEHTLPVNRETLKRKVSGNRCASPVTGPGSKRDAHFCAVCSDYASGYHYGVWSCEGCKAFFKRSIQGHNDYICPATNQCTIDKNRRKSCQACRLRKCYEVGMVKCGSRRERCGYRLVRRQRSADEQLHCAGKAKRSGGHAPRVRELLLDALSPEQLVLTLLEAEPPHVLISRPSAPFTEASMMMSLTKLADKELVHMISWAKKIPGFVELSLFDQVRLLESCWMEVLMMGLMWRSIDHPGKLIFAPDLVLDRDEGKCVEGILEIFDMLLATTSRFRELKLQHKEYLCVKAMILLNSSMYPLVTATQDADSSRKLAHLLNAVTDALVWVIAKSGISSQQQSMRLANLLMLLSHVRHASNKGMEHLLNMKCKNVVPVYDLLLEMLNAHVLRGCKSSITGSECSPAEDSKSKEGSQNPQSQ

Row | SMILES | IC50
39 | COc1cc(/C=C/C(=O)O)ccc1O [FERULATE] | Not Active
40 | NC(=O)NC(=O)Cc1ccccc1 [PHENACEMIDE] | Not Active
41 | NC(=O)CN1CCCC1=O | Not Active
42 | CC(C)Cn1cnc2c(N)nc3ccccc3c21 [IMIQUIMOD] | Not Active
43 | CN(CCOc1ccc(C[C@H](Nc2ccccc2C(=O)c2ccccc2)C(=O)O)cc1)c1ccccn1 | Not Active
44 | COc1ccccc1OCCNCC(O)COc1cccc2[nH]c3ccccc3c12 (stereo unspecified) [CARVEDILOL] | Not Active

biological target: T2, Glucocorticoid receptor (Homo sapiens, UniProt P04150); assay: not given; conditions: hela s3; further: in other assays of this panel Not Active means under 50% inhibition at 10 µM
T2 sequence (P04150 whole entry): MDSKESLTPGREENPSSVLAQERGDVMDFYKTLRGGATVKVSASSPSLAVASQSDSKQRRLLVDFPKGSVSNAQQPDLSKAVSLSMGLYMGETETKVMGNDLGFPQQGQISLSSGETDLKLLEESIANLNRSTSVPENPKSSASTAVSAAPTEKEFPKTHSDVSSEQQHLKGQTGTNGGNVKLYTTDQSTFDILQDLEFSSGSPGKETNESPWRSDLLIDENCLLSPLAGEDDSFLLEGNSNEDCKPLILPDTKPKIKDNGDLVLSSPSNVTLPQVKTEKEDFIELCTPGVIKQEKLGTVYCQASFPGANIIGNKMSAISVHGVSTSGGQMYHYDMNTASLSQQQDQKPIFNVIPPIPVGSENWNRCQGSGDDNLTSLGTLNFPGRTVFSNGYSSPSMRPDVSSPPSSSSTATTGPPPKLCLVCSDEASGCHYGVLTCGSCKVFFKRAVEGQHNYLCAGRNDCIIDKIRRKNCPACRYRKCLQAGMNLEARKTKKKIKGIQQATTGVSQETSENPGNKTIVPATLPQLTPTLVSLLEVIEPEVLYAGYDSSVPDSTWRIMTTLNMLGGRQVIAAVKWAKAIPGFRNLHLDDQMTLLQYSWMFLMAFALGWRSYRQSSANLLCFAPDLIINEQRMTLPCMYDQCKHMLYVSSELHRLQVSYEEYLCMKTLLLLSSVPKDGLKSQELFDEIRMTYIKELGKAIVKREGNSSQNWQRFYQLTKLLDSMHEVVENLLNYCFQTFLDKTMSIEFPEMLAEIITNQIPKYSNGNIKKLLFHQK

Row | SMILES | IC50
45 | COc1cc(/C=C/C(=O)O)ccc1O [FERULATE] | Not Active
46 | NC(=O)NC(=O)Cc1ccccc1 [PHENACEMIDE] | Not Active
47 | NC(=O)CN1CCCC1=O | Not Active
48 | CC(C)Cn1cnc2c(N)nc3ccccc3c21 [IMIQUIMOD] | Not Active
49 | CN(CCOc1ccc(C[C@H](Nc2ccccc2C(=O)c2ccccc2)C(=O)O)cc1)c1ccccn1 | Not Active
50 | COc1ccccc1OCCNCC(O)COc1cccc2[nH]c3ccccc3c12 (stereo unspecified) [CARVEDILOL] | Not Active
